Experimental data from patent US7939531B2, “Pyrrolopyrazine kinase inhibitors” (Roche Palo Alto, priority 2008, dated 2011).
Counter-ions that a name gives are not always drawn.

Experiments:
[1] = molecular target: JAK3: Recombinant human kinase domain (Homo sapiens, UniProt P52333); experiment: Determination of IC50 of Janus Kinase (JAK) Inhibition (radioactive end-point 33P-ATP kinase assay)
Chain of JAK3: Recombinant human kinase domain (P52333 822-1111 limits assumed): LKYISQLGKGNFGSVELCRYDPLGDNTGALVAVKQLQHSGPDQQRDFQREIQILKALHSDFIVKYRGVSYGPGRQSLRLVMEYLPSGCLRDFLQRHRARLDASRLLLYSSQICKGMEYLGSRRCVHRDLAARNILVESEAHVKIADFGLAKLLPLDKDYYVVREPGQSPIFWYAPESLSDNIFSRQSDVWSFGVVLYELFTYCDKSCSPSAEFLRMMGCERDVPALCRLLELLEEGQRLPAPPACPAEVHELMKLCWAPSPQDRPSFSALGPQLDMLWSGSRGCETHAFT
Description: Assay conditions used are described below: • Assay Buffer: JAK Kinase Buffer: 50 mM Hepes [pH 7.2], 10 mM MgCl2, 1 mM DTT, 1 mg/ml BSA. The assay is carried out in this buffer. • Assay Format The kinase activity of all three JAK kinases is measured using a radioactive, end-point assay and with trace amounts of ^33P-ATP. The assays are carried out in 96-well polypropylene plates.
All concentrations are final in the reaction mixture and all incubations are carried at room temperature. […] Final concentration of DMSO in the reaction is 10%. • 2) Compounds are preincubated with enzyme (0.5 nM JAK3 (commercially available), 0.2 nM JAK3 (prepared), 1 nM JAK2, 5 nM JAK1) for 10 minutes. • 3) Reactions are initiated by the addition of a cocktail of the two substrates (ATP and peptide premixed in the JAK Kinase Buffer). […] JAK1 assay is carried out at an ATP concentration of 10 uM and a peptide concentration of 50 uM. • 4) The duration of the assay for JAK2 and JAK3 is 20 minutes. JAK1 assay is carried out for 40 minutes. With all three enzymes, reactions are terminated by the addition of 0.5M EDTA to a final concentration of 100 mM. • 5) 25 ul of terminated reactions are transferred to 150 ul of a 7.5% (v/v) slurry of streptavidin-coated sepharose beads in MgCl2- and CaCl2-free 1× Phosphate Buffered Saline containing 50 mM of EDTA in 96-well, 1.2 um MultiScreen-BV filter plates. • 6) After a 30-minute incubation, the beads are washed under vacuum with the following buffers: • a. 3 to 4 washes with 200 ul of 2M NaCl. • b. 3 to 4 washes with 200 ul of 2M NaCl plus 1% (v/v) phosphoric acid. • c. 1 wash with water. • 7) Washed plates are dried in a 60° C. oven for between 1 to 2 hours. • 8) 70 ul of Microscint 20 scintillation fluid is added to each well of filter plates and after at least 30 minutes of incubation, radioactive counts are measured in a Perkinelmer microplate scintillation counter.

Row | melting point [°C] | IC50 [1] [nM] | SMILES
1 | 224 to 225 |  | CC1(C(=O)c2c[nH]c3ncc(-c4cccs4)nc23)CCCCC1 [Compound I-106, (1-Methyl-cyclohexyl)-(2-thiophen-2-yl-5H-pyrrolo[2,3-b]pyrazin-7-yl)-methanone]
2 | 276 to 278 |  | CCc1nccn1-c1cnc2[nH]cc(C(=O)C(C)(C)C)c2n1 [Compound I-110, 1-[2-(2-Ethyl-imidazol-1-yl)-5H-pyrrolo[2,3-b]pyrazin-7-yl]-2,2-dimethyl-propan-1-one]
3 | 281 to 282 |  | CC(C)(C)C(=O)c1c[nH]c2ncc(-c3cncs3)nc12 [Compound I-121, 2,2-Dimethyl-1-(2-thiazol-5-yl-5H-pyrrolo[2,3-b]pyrazin-7-yl)-propan-1-one]
4 | 247 to 249 |  | Cc1nccn1-c1cnc2[nH]cc(C(=O)C(C)(C)C)c2n1 [Compound I-108, 2,2-Dimethyl-1-[2-(2-methyl-imidazol-1-yl)-5H-pyrrolo[2,3-b]pyrazin-7-yl]-propan-1-one]
5 | 205 to 207 |  | CC(C)(C)C(=O)c1c[nH]c2ncc(-n3ccc4ccccc43)nc12 [Compound I-97, 1-(2-Indol-1-yl-5H-pyrrolo[2,3-b]pyrazin-7-yl)-2,2-dimethyl-propan-1-one]
6 |  | 28.3 | CC1(C(=O)c2c[nH]c3ncc(-c4ccc(C(=O)N5CCC(O)C5)s4)nc23)CCCCC1 (stereo not drawn) [Compound I-74, {2-[5-(3-Hydroxy-pyrrolidine-1-carbonyl)-thiophen-2-yl]-5H-pyrrolo[2,3-b]pyrazin-7-yl}-(1-methyl-cyclohexyl)-methanone]
7 | 235 to 237 |  | CC(C)(C)C(=O)c1c[nH]c2ncc(-c3cn(Cc4ccccc4)nn3)nc12 [Compound I-105, 1-[2-(1-Benzyl-1H-[1,2,3]triazol-4-yl)-5H-pyrrolo[2,3-b]pyrazin-7-yl]-2,2-dimethyl-propan-1-one]
8 | 235 to 236 |  | CC1=NCCN1c1cnc2[nH]cc(C(=O)C(C)(C)C)c2n1 [Compound I-109, 2,2-Dimethyl-1-[2-(2-methyl-4,5-dihydro-imidazol-1-yl)-5H-pyrrolo[2,3-b]pyrazin-7-yl]-propan-1-one]
9 | 215 to 217 |  | CC(C)(C)C(=O)c1c[nH]c2ncc(-n3ccnc3)nc12 [Compound I-107, 1-(2-Imidazol-1-yl-5H-pyrrolo[2,3-b]pyrazin-7-yl)-2,2-dimethyl-propan-1-one]

The next lines start with the molecule.

Row | SMILES | melting point [°C] | IC50 [1] [nM]
10 | CN(C)C1CCN(c2cc(-c3cnc4[nH]cc(C(=O)C(C)(C)C)c4n3)ccn2)C1 (stereo not drawn) [Compound I-14, 1-{2-[2-(3-Dimethylamino-pyrrolidin-1-yl)-pyridin-4-yl]-5H-pyrrolo[2,3-b]pyrazin-7-yl}-2,2-dimethyl-propan-1-one] | 226 to 228 | 
11 | CC1CCCN1c1cc(-c2cnc3[nH]cc(C(=O)C(C)(C)C)c3n2)ccn1 (stereo not drawn) [Compound I-16, 2,2-Dimethyl-1-{2-[2-(2-methyl-pyrrolidin-1-yl)-pyridin-4-yl]-5H-pyrrolo[2,3-b]pyrazin-7-yl}-propan-1-one] | 220 to 221 | 
12 | CN(CCO)C(=O)c1ccc(-c2cnc3[nH]cc(C(=O)C4(C)CCCCC4)c3n2)s1 [Compound I-73, 5-[7-(1-Methyl-cyclohexanecarbonyl)-5H-pyrrolo[2,3-b]pyrazin-2-yl]-thiophene-2-carboxylic acid (2-hydroxy-ethyl)-methyl-amide] |  | 18
13 | CNC1CCCN(c2cnc3[nH]cc(C(=O)NC(C)C)c3n2)C1 (stereo not drawn) [Compound I-8, 2-(3-Methylamino-piperidin-1-yl)-5H-pyrrolo[2,3-b]pyrazine-7-carboxylic acid isopropylamide; compound with trifluoro-acetic acid] | 54 to 64 | 
14 | CCC(CC)NC(=O)c1cc(-c2cnc3[nH]cc(C(=O)C4(C)CCCCC4)c3n2)cs1 (as salt: hydrochloride) [Compound I-43, 4-[7-(1-Methyl-cyclohexanecarbonyl)-5H-pyrrolo[2,3-b]pyrazin-2-yl]-thiophene-2-carboxylic acid (1-ethyl-propyl)-amide] | 273 to 275 | 
15 | CC(=O)N1CCN(c2cc(-c3cnc4[nH]cc(C(=O)C(C)(C)C)c4n3)ccn2)CC1 [Compound I-5, 1-{2-[2-(4-Acetyl-piperazin-1-yl)-pyridin-4-yl]-5H-pyrrolo[2,3-b]pyrazin-7-yl}-2,2-dimethyl-propan-1-one] | 257 to 260 | 
16 | COc1cncc(-c2cnc3[nH]cc(C(=O)C(C)(C)C)c3n2)c1 [Compound I-6, 1-[2-(5-Methoxy-pyridin-3-yl)-5H-pyrrolo[2,3-b]pyrazin-7-yl]-2,2-dimethyl-propan-1-one] | 215 to 223.6 | 
17 | CCOC(=O)c1cc2cc(C3=C(c4cnc5[nH]cc(C(=O)C(C)(C)C)c5n4)CCC3)ccc2[nH]1 [Compound I-39, 5-{2-[7-(2,2-Dimethyl-propionyl)-5H-pyrrolo[2,3-b]pyrazin-2-yl]-cyclopent-1-enyl}-1H-indole-2-carboxylic acid ethyl ester] | 278 to 280 | 
18 | CC(C)(C)C(=O)c1c[nH]c2ncc(-c3cn(C4CCCC4)nn3)nc12 [Compound I-12, 1-[2-(1-Cyclopentyl-1H-[1,2,3]triazol-4-yl)-5H-pyrrolo[2,3-b]pyrazin-7-yl]-2,2-dimethyl-propan-1-one] | 193.3 to 199.3 | 
19 | CC(C)(C)C(=O)c1c[nH]c2ncc(C3=C(c4ccccc4)CCC3)nc12 [Compound I-38, 2,2-Dimethyl-1-[2-(2-phenyl-cyclopent-1-enyl)-5H-pyrrolo[2,3-b]pyrazin-7-yl]-propan-1-one] | 207 to 209 | 
20 | CC(C)(C)C(=O)c1c[nH]c2ncc(-c3ccc(C(=O)NC4CCOCC4)s3)nc12 [Compound I-32, 5-[7-(2,2-Dimethyl-propionyl)-5H-pyrrolo[2,3-b]pyrazin-2-yl]-thiophene-2-carboxylic acid (tetrahydro-pyran-4-yl)-amide] | > 300 | 
21 | CC(C)NC(=O)c1c[nH]c2ncc(N3CCCC(N(C)C(=O)OC(C)(C)C)C3)nc12 (stereo not drawn) [Compound I-7, [1-(7-Isopropylcarbamoyl-5H-pyrrolo[2,3-b]pyrazin-2-yl)-piperidin-3-yl]-methyl-carbamic acid tert-butyl ester] | 251 to 252 | 
22 | CC(C)(C)C(=O)c1c[nH]c2ncc(-c3cn(S(=O)(=O)c4ccccc4)c4ccccc34)nc12 [Compound I-1, 1-[2-(1-Benzenesulfonyl-1H-indol-3-yl)-5H-pyrrolo[2,3-b]pyrazin-7-yl]-2,2-dimethyl-propan-1-one] | 267 to 268 | 
23 | CC(C)(C)C(=O)c1c[nH]c2ncc(-c3ccnc(N4CCCC4)c3)nc12 [Compound I-11, 2,2-Dimethyl-1-[2-(2-pyrrolidin-1-yl-pyridin-4-yl)-5H-pyrrolo[2,3-b]pyrazin-7-yl]-propan-1-one] | 275.1 to 276.4 | 
24 | CN(CC#N)C(=O)c1cc(-c2cnc3[nH]cc(C(=O)C4(C)CCCCC4)c3n2)cs1 [Compound I-40, 4-[7-(1-Methyl-cyclohexanecarbonyl)-5H-pyrrolo[2,3-b]pyrazin-2-yl]-thiophene-2-carboxylic acid cyanomethyl-methyl-amide] |  | 44.7
25 | CC(C)(C)C(=O)c1c[nH]c2ncc(-c3ccc(C(=O)NC4CCCC4)s3)nc12 [Compound I-31, 5-[7-(2,2-Dimethyl-propionyl)-5H-pyrrolo[2,3-b]pyrazin-2-yl]-thiophene-2-carboxylic acid cyclopentylamide] | > 300 | 
26 | CC(C)(C)C(=O)c1c[nH]c2ncc(-c3ccnc(N4CCCCC4)c3)nc12 [Compound I-13, 2,2-Dimethyl-1-[2-(3,4,5,6-tetrahydro-2H-[1,2′]bipyridinyl-4′-yl)-5H-pyrrolo[2,3-b]pyrazin-7-yl]-propan-1-one] | 250 to 251 | 
27 | CC(C)(C)C(=O)c1c[nH]c2ncc(-c3ccnc(N4CCSCC4)c3)nc12 [Compound I-15, 2,2-Dimethyl-1-[2-(2-thiomorpholin-4-yl-pyridin-4-yl)-5H-pyrrolo[2,3-b]pyrazin-7-yl]-propan-1-one] | 287 to 290 | 
